Laboratory results reported in ChEMBL document CHEMBL3507680, “University of Dundee, Gates Library screen for HepG2 cell viability”.

Experiment: Human HepG2 cell viability assay in 384 well format
Assay type: toxicity, cell-based
Parameters: dose 125 nL, time 70.5 hour; concentration not given beside the values
Conditions: HepG2 cells, read-out: Inhibition

| Structure (SMILES) | cytotoxicity at 70.5 h [%] |
| --- | --- |
| COc1ccc(F)cc1C(=O)C1CCCN(Cc2cnc(C)s2)C1 (stereo not given) | -11.8 |
| COCCn1ccnc1C1CCN(C(=O)C(O)c2ccc(F)cc2)CC1 (stereo not given) | -5.34 |
| COc1cccn(CC(=O)N(C)CCC2CCOCC2)c1=O | 25 |
| O=C(NCCCO)c1cnc(-c2ccccc2)nc1O | -2.27 |
| O=C(Nc1ccc2occc2c1)N1CCCC(O)(CO)CC1 (stereo not given) | -1.52 |
| C=C(C)COc1cccc(C(=O)NC(C)c2nnn[nH]2)c1 (stereo not given) | 18.4 |
| COc1ccc(-c2nc(CN3CCCC(OC)C3)c(C)o2)c(F)c1 (stereo not given) | 10.8 |
| NC1CCCc2nc(-c3ccccc3)ncc21 (stereo not given) | -8.86 |
| CCCOCCn1ncc(N2CCCC2)cc1=O | -1.75 |
| COc1cc(-c2nc(CN(CCO)CCO)c(C)o2)ccc1F | 2.15 |
| C[C@@H]1CN(CCOCc2ccccc2)CC[C@@]1(O)C1CCC1 | 37.7 |
| Cc1ccsc1[C@@H]1CCN(C(=O)c2ccc(-c3cc[nH]n3)cc2)C[C@H]1O | -10.8 |
| Cc1nc(CN2CCCC(Cn3cc(CCO)nn3)C2)c2ccccn12 (stereo not given) | -5.43 |
| O=C(COc1ccccc1O)N1CCOC(C(F)(F)F)C1 (stereo not given) | 17.8 |
| Cn1ncc2c(NC3CCSC3)nc(-c3ccncc3)nc21 (stereo not given) | 3.97 |
| Cc1n[nH]c(C)c1CCNC(=O)Nc1ccc2c(c1)COC2 | -19 |
| Cc1ccc(-n2cccn2)cc1S(=O)(=O)N1C[C@H](C2CC2)[C@@H](N)C1 | 11.6 |
| O=c1[nH]cnc2c1CCN(S(=O)(=O)c1ccc(Cl)cc1)C2 | -11.8 |
| CCc1ccc(CN2CCNC(C(=O)N3CCN(C)CC3)C2)nc1 (stereo not given) | -0.217 |
| Cc1ncsc1CCCNC(=O)C1CC2(CCNCC2)CN1C (stereo not given) | 13 |
| CC(C)[C@@H](C)NC1CCN(c2ccc(-n3ccnc3)cc2)CC1 | -12.5 |
| C=C(C)COc1cccc(C(=O)N(CC)Cc2nc(COC)no2)c1 | -7.82 |
| COc1cccc(CC(=O)N2CCC(Cc3nnc(SC)n3C)CC2)c1 | -23.6 |
| CCCn1ncnc1C(C)NC(=O)C1CCN(CC(N)=O)CC1 (stereo not given) | -6.92 |
| CN1C[C@H]2CNC[C@@]2(C(=O)NC2CCN(c3ncccc3C#N)CC2)C1 | 1.46 |
| CCOCc1nc2c(c(N(C)Cc3nonc3C)n1)CCNCC2 | -11.4 |
| Nc1nc2c(c(N3CCC(CCn4cccn4)CC3)n1)CCNCC2 | -5.53 |

| Structure (SMILES) | cytotoxicity at 70.5 h [%] |
| --- | --- |
| Cc1ncc2c(c1CNC(=O)C1(c3ccc(F)cc3)CC1)CCNC2 | -5.4 |
| O=C(c1cc(-n2cccn2)ccc1Cl)N1CCC(N2CCCC2=O)CC1 | -9.31 |
| CNc1ncc(CN(C)C(=O)c2cccc(-n3cnnc3)c2)cn1 | 11.7 |
| CC(C)c1ccc(CC(=O)N2CCCC3(CN(C)C(=O)O3)C2)cc1 (stereo not given) | 22.5 |
| CCc1ccc(CN(C)C(=O)c2ccc(CSc3nnc[nH]3)o2)nc1 | -11.2 |
| CC(C)C1CN(c2ncccc2Cl)CCC(=O)N1Cc1ccc(F)cc1 (stereo not given) | 4.1 |
| CN1CCN(Cc2noc(CC3CCc4ccccc43)n2)CC1 (stereo not given) | -7.61 |
| O=C(c1ccccn1)N1C[C@@H]2CC[C@H](C1)N(C(=O)c1ccsc1)C2 | 26.5 |
| Cc1[nH]ccc1C(=O)N1CCCC(c2ccc(C(=O)O)cc2)C1 (stereo not given) | -22.6 |
| O=C(N[C@@H]1CCCNC1)C1(Oc2ccc(Cl)cc2)CCNCC1 | 13.1 |
| O=C(O)[C@@H]1CN(CC2CCC2)C[C@H]1c1ccc(F)cc1 | -7.16 |
| Cc1nn(C)c2nc(N(C)CCN(C)C)sc12 | -9.29 |
| CCc1cc(C(=O)N2CCC3(CCCN(CC4CC4)C3=O)C2)cs1 (stereo not given) | 6.71 |
| Cc1c[nH]c(C(=O)N2CCCC2c2ccc(C(=O)N3CCSCC3)s2)n1 (stereo not given) | -11.4 |
| CCC(OC)C(=O)NCc1cc2n(n1)CCCN(C1CCCCC1)C2 (stereo not given) | -9.86 |
| CC(=O)NCc1nnc2n1CCN(c1ncnc3c(C)csc13)CC2 | 27 |
| O=C(O)C1CN(Cc2cnc(C3CCCCC3)nc2)CCO1 (stereo not given) | 17.1 |
| O=C(CC1CCCC1)N1CCC2(CC1)[C@H](O)C[C@@H]2O | -12.2 |
| Cc1ccc(CCNc2ncc(C)c(-c3ccnn3C)n2)s1 | -8.02 |
| CN(CCC1CCCCO1)c1nncc(-c2ccccc2)n1 (stereo not given) | -0.965 |
| CC(C)(O)CCc1cccc(C(=O)NCCC2CCOC2)c1 (stereo not given) | -0.764 |
| COc1ccc(OC)c(C2CCN(C(=O)C3CCN(C(C)C)CC3)C2)c1 (stereo not given) | -8.95 |
| CC[C@@]1(O)CCN(C(=O)c2ccc(-n3cnnc3)cc2)C[C@H]1O | 20.9 |
| Clc1ccccc1OC1CN(CC2CCOC2)C1 (stereo not given) | 8.25 |
| Cc1ccc(CN2CCN(C(=O)C3CCC3)[C@@H]3CS(=O)(=O)C[C@@H]32)cc1C | -0.626 |
| CCS(=O)(=O)c1ncc(CN2CCOCC2)n1CCCc1ccccc1 | 19.9 |
| Cc1cccc(-n2nc(CC(C)C)nc2CCn2ccc(=O)[nH]c2=O)c1 | -2.09 |

| Structure (SMILES) | cytotoxicity at 70.5 h [%] |
| --- | --- |
| CC(C)c1cc(=O)[nH]c(-c2ccccc2CN2CCC(C)(C)C2)n1 | 5.1 |
| Cc1cc(C2CCC2)nc(N2CCN(Cc3nccn3C)CC2)n1 | -1.45 |
| CN(C)CCNC(=O)CCC1CCN(C(=O)c2ccc(O)cn2)CC1 | -6.92 |
| CCOC(=O)CCNC(=O)N1CCOC(Cc2cccc(OC)c2)C1 (stereo not given) | -9.71 |
| O=C(Cc1ccc(F)cc1Cl)N[C@@H]1CCNC[C@H]1O | -6 |
| Cc1ccc(OC2(C(=O)O)CCN(C(=O)c3cccc(F)c3)CC2)cn1 | 2.13 |
| COCc1nnc(C(=O)N2CC(N3CCCCC3)C2)o1 | -9.01 |
| CCS(=O)(=O)N1CC[C@@H]2[C@@H](CCC(=O)N2CCc2ccccc2)C1 | 1.58 |
| CC(C)CN1CCN(C)C(CCO)C1 (stereo not given) | -8.39 |
| CN(Cc1ccncn1)C(=O)CCc1[nH]nc2c1CCCC2 | -5.7 |
| Cc1n[nH]c(C)c1CCc1ccc(S(C)(=O)=O)cc1 | -13.7 |
| Cc1cccc(-n2nc(CC(C)C)nc2CCCC(N)=O)c1 | -6.23 |
| Cc1nnsc1CN1C[C@@H]2CC[C@H](C1)N(Cc1c(C)noc1C)C2=O | -0.902 |
| Cc1ccsc1C(=O)N1CCC(c2nccn2Cc2ccncc2)CC1 | -9.49 |
| Nc1nc(CCC(=O)N2C[C@H](c3ccccc3)[C@@H](N)C2)cs1 | -20.5 |
| O=C(c1nc(=O)[nH]c2ccccc12)N1CCCC(CC2CC2)(C(=O)O)C1 (stereo not given) | -8.79 |
| O=C(NCc1nnc2n1CCC2)c1cn(-c2ccccc2)nn1 | -5.59 |
| CN(C)Cc1cc(-c2nccn2CCn2cccn2)ccc1O | -11.1 |
| O=c1n(CC2CCCO2)nc(CC2CCNCC2)n1-c1ccccc1 (stereo not given) | -11 |
| CN1CC2(CCNCC2)CC1C(=O)NCCCNc1cccnc1 (stereo not given) | 17.1 |
| CCc1nc(N2CCC3(CCC(=O)N(Cc4ccncc4)C3)CC2)no1 | 10.6 |
| COc1nccnc1N1CCC(C(=O)O)(n2ccc(C(C)(C)C)n2)CC1 | -10.8 |
| Cc1nc(C(=O)N2CCN(c3ccc(Cl)c(Cl)c3)CC2)cs1 | -3.76 |
| Cc1ncsc1CCN(C)C(=O)c1ncccc1O | -7.99 |
| Cc1nn(C)c2nc(N(Cc3ccccc3)CC3CCCO3)sc12 (stereo not given) | -11 |
| Cc1ncc(CC(=O)N2CCC3(CCC(=O)N(C4CC4)C3)CC2)c(=O)[nH]1 | 5.88 |
